This is an account of results in patent US20240174618A1, “SUBSTITUTED (2-HETEROARYLOXYPHENYL)SULFONATES, SALTS THEREOF AND THEIR USE AS HERBICIDAL AGENTS” (Bayer Aktiengesellschaft, priority 2021, published 2024).

Structures are written as SMILES.

Holding throughout (assay type): in vivo
Experiment [1] relates to Setaria viridis (SETVI). The experiment can be described thus: B. Herbicidal post-emergence efficacy, SETVI. The essentials:
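Visual percent efficacy relative to untreated controls (0% unaffected, 100% dead), scored roughly 3 weeks after foliar spraying of one-leaf-stage pot-grown plants with WP or EC preparations at application rates up to 1280 g/ha in 600 L/ha water containing 0.5% additive.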

Experiment [2] relates to Stellaria media (STEME). The experiment can be described thus: A. Herbicidal pre-emergence efficacy, STEME. The method in brief: (§1)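 Applied before emergence onto covering soil at rates of 1280 g/ha or less, using 600 L/ha spray water with 0.5% additive. Scoring: visual % efficacy after ~3 weeks, greenhouse.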
Experiment [3] relates to Abutilon theophrasti (ABUTH). The experiment is described as follows: A. Herbicidal pre-emergence efficacy, ABUTH. The following applies: scored visually after about 3 weeks vs untreated controls. The essentials:
as §1

The test system of experiment [4] is Amaranthus retroflexus (AMARE). The experiment can be described thus: C. Herbicidal pre-emergence efficacy, AMARE. The following applies: scored after about 3 weeks. An excerpt:
(§2) Seeds of monocotyledonous and dicotyledonous weed plants and crop plants were placed in plastic or organic planting pots and covered with soil. The compounds of the invention, formulated in the form of wettable powders (WP) or as emulsion concentrates (EC), were then applied to the surface of the covering soil as aqueous suspension or emulsion with addition of 0.5% additive at a water application rate equivalent to 600 l/ha (converted). After the treatment, the pots were placed in a greenhouse and kept under good growth conditions for the test plants. After about 3 weeks, the efficacy of the preparations was scored visually in comparison with untreated controls as percentages. For example, • 100% efficacy=plants have died, • 0% efficacy=like untreated control plants.
(§3) Tables C1a to C14b below show the effects of selected compounds of the general formula (I) according to table 1 on various harmful plants at an application rate corresponding to 320 g/ha or less, which were obtained by the experimental procedure mentioned above.

In experiment [5] the test system is Setaria viridis (SETVI). The experiment can be described thus: C. Herbicidal pre-emergence efficacy, SETVI. The following applies: scored after about 3 weeks.
From the text: as §2, §3

The test system of experiment [6] is Viola tricolor (VIOTR). The experiment can be described thus: E. Herbicidal post-emergence efficacy, VIOTR. The protocol:
(§4) Seeds of monocotyledonous and dicotyledonous weeds and crop plants were placed in sandy loam in plastic or organic planting pots, covered with soil and cultivated in a greenhouse under controlled growth conditions. 2 to 3 weeks after sowing, the test plants were treated at the one-leaf stage. The compounds of the invention, formulated in the form of wettable powders (WP) or as emulsion concentrates (EC), were then sprayed onto the green parts of the plants as aqueous suspension or emulsion with addition of 0.5% additive at a water application rate of 600 l/ha (converted). After the test plants had been kept in the greenhouse under optimum growth conditions for about 3 weeks, the activity of the preparations was rated visually in comparison to untreated controls.
(§5) For example, • 100% efficacy=plants have died, • 0% action=like untreated control plants.
(§6) Tables E1a to E12b below show the effects of selected compounds of the general formula (I) according to table 1 on various harmful plants at an application rate corresponding to 320 g/ha or less, which were obtained by the experimental procedure mentioned above.

The subject of experiment [7] is Setaria viridis (SETVI). The experiment is described as follows: E. Herbicidal post-emergence efficacy, SETVI. The following applies: application rate 320 g/ha. The protocol:
as §4, §5, §6

Experiment [8] deals with Echinochloa crus-galli (ECHCG). The experiment is described as follows: E. Herbicidal post-emergence efficacy, ECHCG. The protocol: as §4, §5, §6

For the molecule `CCS(=O)(=O)Oc1ccccc1Oc1ncc(Cl)cn1` [Example I-16], the “Post-emergence efficacy against SETVI” value in experiment [1] (1280 g/ha) turned out to be 90%. The “Pre-emergence efficacy against STEME” value in experiment [2] (dosage 320 g/ha) and in experiment [2] (dosage 1280 g/ha) was 100% throughout. The “Pre-emergence efficacy against ABUTH” value in experiment [3] (320 g/ha) and in experiment [3] (1280 g/ha) was 100% throughout.
In the case of `O=S(=O)(CCCCl)Oc1cccc(F)c1Oc1ncc(Cl)cn1` [Example I-13], the “Pre-emergence efficacy against STEME” value in experiment [2] (dosage 80 g/ha), in experiment [2] (dosage 320 g/ha) and in experiment [2] (dosage 1280 g/ha) was 100% throughout. The “Pre-emergence efficacy against AMARE” value in experiment [4] (320 g/ha) is reported as 100%. Moreover, the “Pre-emergence efficacy against ABUTH” value in experiment [3] (320 g/ha) is on record as 90%; in experiment [3] (1280 g/ha), 100%.
As for `O=S(=O)(CCC(F)(F)F)Oc1c(Br)cccc1Oc1ncc(F)cn1` [Example I-43], the “Pre-emergence efficacy against STEME” value in experiment [2] (dosage 320 g/ha) and in experiment [2] (dosage 1280 g/ha) was 100% throughout. For the same molecule, the “Pre-emergence efficacy against SETVI” value in experiment [5] (80 g/ha) and in experiment [5] (320 g/ha) was 100% in each case. Moreover, the “Pre-emergence efficacy against AMARE” value in experiment [4] (80 g/ha) and in experiment [4] (320 g/ha) was 100% throughout. Besides, the entries for the “Post-emergence efficacy against VIOTR in %” value in experiment [6] (application rate 80 g/ha) and in experiment [6] (application rate 320 g/ha) were 90% and 100%, respectively. For the same molecule, the “Pre-emergence efficacy against ABUTH” value in experiment [3] (320 g/ha) and in experiment [3] (1280 g/ha) was 100% throughout.
On to `N#Cc1cccc(Oc2ncc(Cl)cn2)c1OS(=O)(=O)CCCC(F)(F)F` [Example I-81], for which the “Post-emergence efficacy against SETVI in %” value in experiment [7] was determined as 100%. In addition, the “Pre-emergence efficacy against SETVI” value in experiment [5] (80 g/ha) and in experiment [5] (320 g/ha) was 100% in each case. The “Pre-emergence efficacy against AMARE” value in experiment [4] (80 g/ha) and in experiment [4] (320 g/ha) was 100% each time. The “Post-emergence efficacy against VIOTR in %” value in experiment [6] (application rate 80 g/ha) and in experiment [6] (application rate 320 g/ha) was 100% throughout. For the same molecule, the “Post-emergence efficacy against ECHCG in %” value in experiment [8] (application rate 80 g/ha) and in experiment [8] (application rate 320 g/ha) was 80% throughout.
In the case of `O=S(=O)(CCC(F)=C(F)F)Oc1c(Cl)cccc1Oc1ncc(Cl)cn1` [Example I-73], the “Post-emergence efficacy against SETVI” value in experiment [1] (1280 g/ha) amounted to 90%. Besides, the “Pre-emergence efficacy against STEME” value in experiment [2] (dosage 320 g/ha) and in experiment [2] (dosage 1280 g/ha) was 100% throughout. The “Pre-emergence efficacy against SETVI” value in experiment [5] (320 g/ha) is recorded as 100%. Besides, the “Pre-emergence efficacy against AMARE” value in experiment [4] (80 g/ha) is on record as 90%; in experiment [4] (320 g/ha) it was 100%. Besides, the “Post-emergence efficacy against VIOTR in %” value in experiment [6] (application rate 80 g/ha) is 90%; in experiment [6] (application rate 320 g/ha), 100%. In experiment [3] (1280 g/ha), the “Pre-emergence efficacy against ABUTH” value is given as 90%.
On to `C=CCS(=O)(=O)Oc1ccccc1Oc1ncc(Cl)cn1` [Example I-36], for which, in experiment [1] (1280 g/ha), the “Post-emergence efficacy against SETVI” value was 90%. Moreover, the “Pre-emergence efficacy against STEME” value in experiment [2] (dosage 1280 g/ha) amounted to 90%. Besides, the “Pre-emergence efficacy against AMARE” value in experiment [4] (320 g/ha) worked out at 100%. Further, the “Pre-emergence efficacy against ABUTH” value in experiment [3] (320 g/ha) and in experiment [3] (1280 g/ha) was 100% in each case.
With `O=S(=O)(CC1CC1(Cl)Cl)Oc1c(F)cccc1Oc1ncc(Cl)cn1` (centres unmarked) [Example I-57], the “Post-emergence efficacy against SETVI” value in experiment [1] (320 g/ha) and in experiment [1] (1280 g/ha) was 90% throughout. For the same molecule, the “Pre-emergence efficacy against STEME” value in experiment [2] (dosage 320 g/ha) and in experiment [2] (dosage 1280 g/ha) was 100% each time. The “Pre-emergence efficacy against ABUTH” value was 90% in experiment [3] (320 g/ha) and 100% in experiment [3] (1280 g/ha).
